Test results as given in patent publication US20120083861A1, “SELECTIVE ACTIVATION OF NEURONS BY SINUSOIDAL ELECTRIC STIMULATION” (THE GENERAL HOSPITAL CORPORATION, priority 2010, published 2012).
“Also recorded” adds a separate entry of the source.

Test system: retinal ganglion cells
Experiment: Ganglion cell spiking response to electric stimulation near the soma with synaptic transmission blocked pharmacologically (cell-attached patch clamp, isolated retina)
Assay type: cell-based, rabbit
Conditions: for maximum number of elicited spikes in control versus with synaptic blocker: 1 sec, plot control (x) vs blocker (y), FIG. 5c, 5d; for response to 10-Hz stimulation (spikes elicited): 10 Hz sinusoidal stimulus near soma; for stimulus threshold in blocker relative to control / effect of the blockers on stimulus threshold: 50 μM CNQX or 100 μM CdCl2, paired t-test; for response to 25-Hz stimulation (spikes elicited): 25 Hz sinusoidal stimulus near soma; for synaptically mediated response of ganglion cells to stimulation: stimulation at 5-25 Hz
Description: The present invention provides for responses to LFSS that are synaptic in origin. To determine whether presynaptic activation played a significant role in the high sensitivity of the soma region to LFSS, the response to stimulation near the soma was measured while synaptic transmission was blocked pharmacologically. The primary source of excitatory input to ganglion cells arises via glutamatergic release from the axon terminals of bipolar cells and is mediated through AMPA/kainate receptors on the ganglion cell dendrites.
The care and use of animals followed all federal and institutional guidelines, and all protocols were approved by the Institutional Animal Care and Use Committees of the Boston VA Healthcare System and/or the Subcommittee of Research Animal Care of the Massachusetts General Hospital. New Zealand White Rabbits (˜2.5 kg) were anesthetized with injections of xylazine/ketamine and subsequently euthanized with an intracardial injection of pentobarbital sodium. Immediately after death, the eyes were removed. All procedures following eye removal were performed under dim red illumination. The front of the eye was removed, the vitreous was eliminated. The retina was separated from the retinal pigment epithelium and mounted, photoreceptor side down, to a 10-mm square piece of Millipore filter paper (0.45 μm HA Membrane Filter) that was mounted with vacuum grease to the recording chamber (˜1.0 ml volume). A 2-mm circle in the center of the Millipore paper allowed light from below to be projected on to the photoreceptors.
Patch pipettes were used to make small holes in the inner limiting membrane, and ganglion cells with large somata were targeted under visual control. Spiking was recorded with a cell-attached patch electrode (4-8MΩ) filled with superfusate. For whole-cell recordings, the patch electrode was filled with (in mM): 113 CsMeSO4, 1 MgSO4, 7.8×10^−3 CaCl2, 0.1 BABTA, 10 HEPES, 4 ATP-Na2, 0.5 GTP-Na3, 5 lidocaine N-ethyl bromide (QX314-BR), 7.5 neurobiotin chloride, pH 7.2. […] Two silver-chloride coated silver wires served as the ground and were positioned at opposite edges of the recording chamber each approximately 15 mm from the targeted cell. The retina was continuously perfused at 4 mL/min with Ames' (pH 7.4) at 36° C., equilibrated with 95% O2 and 5% CO2. Pharmacological agents were applied to the bath by switching a 3-way stopcock to a 200 mL reservoir of Ames' containing one or more of the following blockers: 50 μM 6-cyano-7-nitroquinoxaline-2,3-dione (CNQX), 100 μM cadmium chloride (CdCl2).
Pulse and sinusoidal stimuli were controlled by Multi-Channel Systems STG2004 hardware and software. Two silver-chloride coated silver wires served as the return; each was positioned approximately 8 mm from the targeted cell and approximately 12 mm from each other. The height of the stimulating electrode remained fixed at 25 μm above the inner limiting membrane. The stimulating electrode was placed either directly over the sodium-channel band on the proximal axon, or ˜1 mm lateral to the soma directly over the distal axon. Because of the use of patch clamp, spikes were clearly visible through the stimulus artifact. The efficacy of various stimulation waveforms (0.2-ms pulses and 5-Hz to 100-Hz sinusoids) was tested for the two different electrode positions.
Pulsatile stimuli were biphasic pulses (equal and opposite rectangular phases) delivered at 10 pulses per second (phase duration: 200 μsec; interphase delay: 10 ms; cathodic phase first). The interphase delay was long enough for the neural response to the cathodic pulse to be completed before the onset of the anodic phase. For each stimulus amplitude, 15-30 pulses were delivered and there was a delay of >5 sec between stimulation epochs. Pulses of this duration and over the range of stimulus amplitudes produced either a single spike or no spike. If a spike was elicited, it immediately followed the cathodal pulse. […]

[1] = single blocker in bath: 50 μM CNQX or 100 μM CdCl2 alone
[2] = single blocker: 50 μM CNQX (n=6) or 100 μM CdCl2 (n=4)

Structure (SMILES)	maximum number of elicited spikes in control versus with synaptic blocker (10-Hz stimulation)	response to 10-Hz stimulation (spikes elicited) (100 μM CdCl2 added to 50 μM CNQX, n=2/2)	response to 10-Hz stimulation (spikes elicited) [1]	stimulus threshold in blocker relative to control (10 Hz stimulation)	response to 25-Hz stimulation (spikes elicited) (CNQX and CdCl2 both present (n=2))	response to 25-Hz stimulation (spikes elicited) [2]	maximum number of elicited spikes in control versus with synaptic blocker (25 Hz stimulation)	stimulus threshold in blocker relative to control (25 Hz stimulation)	maximum number of elicited spikes in control versus with synaptic blocker (100-Hz stimulation)	effect of the blockers on stimulus threshold (100-Hz stimulation)	synaptically mediated response of ganglion cells to stimulation (cadmium applied in addition to CNQX)	synaptically mediated response of ganglion cells to stimulation (CNQX applied)
[Cl][Cd][Cl] [CdCl2, cadmium chloride]	largely clustered around the x-axis	mostly eliminated	completely eliminated; also recorded: greatly reduced	increased significantly	greatly reduced	greatly reduced	mostly scattered between the line of unity slope and the x-axis	increased significantly	largely clustered around the line of unity slope	not significant	completely abolish	–
N#Cc1cc2c(cc1[N+](=O)[O-])=NC(=O)C(=O)N=2 [CNQX, 6-cyano-7-nitroquinoxaline-2,3-dione]	largely clustered around the x-axis	–	greatly reduced; also recorded: completely eliminated	increased significantly	–	greatly reduced; also recorded: blocks much of this response	mostly scattered between the line of unity slope and the x-axis	increased significantly	largely clustered around the line of unity slope	not significant	–	greatly reduced
